In this assay the test system is KB. The assay can be described thus: Cytotoxicity against human KB cells. The format is functional, cell-based.

SMILES strings stand for the structures. Values after ≈ are worked out from the molar mass of the structure shown.

`O=C1CCC[C@@H]2C[C@H](C[C@](O)(/C=C/c3ccccc3)O2)c2c(cc(O)c(C(=O)/C=C/c3ccccc3)c2O)O1` [KURZICHALCOLACTONE]: the midpoint of inhibition, the IC50, lay at 15 µg/mL (≈ 28.5 µM).

Take `O=C1CCC[C@@H]2C[C@H](C[C@](O)(/C=C/c3ccccc3)O2)c2c(cc(O)c3c2O[C@H](c2ccccc2)CC3=O)O1` [KURZIFLAVOLACTONE B]: the half-maximal inhibitory concentration (IC50) (commonly the concentration needed to halve the response being measured) amounted to 4 µg/mL (≈ 7.6 µM).

These data come from ChEMBL document CHEMBL1148182, “Flavonone and chalcone derivatives from Cryptocarya kurzii” (J Nat Prod, 1993).
